Results taken from article PMC10882265 (RSC Advances, 2024).
“And” between values parts separate entries of the source, which are not always exact repeats. Equal values may be shown once.

Legend:
human recombinant DPP-4 = human recombinant DPP-4 (Homo sapiens, UniProt P27487); assay: biochemical; conditions: Inhibition of DPP-4 IC50, mean of three experiments
murine model of T2DM = conditions: oral, high fat diet + streptozotocin T2DM ref 35; cited from earlier work

Chain of human recombinant DPP-4 (P27487 whole entry): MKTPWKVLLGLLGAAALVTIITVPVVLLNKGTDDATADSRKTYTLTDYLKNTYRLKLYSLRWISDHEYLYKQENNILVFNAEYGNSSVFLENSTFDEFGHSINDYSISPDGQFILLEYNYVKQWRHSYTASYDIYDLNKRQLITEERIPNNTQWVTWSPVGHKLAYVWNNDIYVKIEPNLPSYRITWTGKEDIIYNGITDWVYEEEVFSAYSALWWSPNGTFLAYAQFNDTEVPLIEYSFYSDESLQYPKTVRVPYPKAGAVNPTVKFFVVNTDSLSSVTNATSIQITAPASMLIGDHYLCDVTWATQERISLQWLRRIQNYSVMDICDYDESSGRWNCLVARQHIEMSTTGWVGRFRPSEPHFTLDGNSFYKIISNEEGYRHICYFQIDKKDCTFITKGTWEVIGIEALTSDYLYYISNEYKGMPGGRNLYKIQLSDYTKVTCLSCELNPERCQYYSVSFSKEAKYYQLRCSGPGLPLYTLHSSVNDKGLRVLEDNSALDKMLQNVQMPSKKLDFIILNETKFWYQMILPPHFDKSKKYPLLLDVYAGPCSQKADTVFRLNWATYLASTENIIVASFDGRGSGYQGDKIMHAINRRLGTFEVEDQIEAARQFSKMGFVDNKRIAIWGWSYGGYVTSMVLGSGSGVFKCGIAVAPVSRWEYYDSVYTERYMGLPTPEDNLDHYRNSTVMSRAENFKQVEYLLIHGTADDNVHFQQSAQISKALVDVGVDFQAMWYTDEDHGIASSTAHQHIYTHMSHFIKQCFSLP

| IC50 (human recombinant DPP-4) | SMILES | antihyperglycemic effect (murine model of T2DM) | effect on cardiac and renal dysfunction (murine model of T2DM) |
| --- | --- | --- | --- |
| 2900 nM and 2930 nM | NC(CC(=O)NNCc1ccc(F)c(F)c1)Cc1cc(F)c(F)cc1F (stereo not shown) [LASSBio-2127 (13), 3-amino-N'-(3,4-difluorobenzyl)-4-(2,4,5-trifluorophenyl)butanehydrazide] |  |  |
| 44700 nM | N[C@H](CC(=O)N/N=C/c1ccc(F)c(F)c1)Cc1cc(F)c(F)cc1F [LASSBio-2130 (6-S), (S,E)-3-amino-N'-(3,4-difluorobenzylidene)-4-(2,4,5-trifluorophenyl)butanehydrazide] |  |  |
|  | N[C@@H](CC(=O)N1CCn2c(nnc2C(F)(F)F)C1)Cc1cc(F)c(F)cc1F [Sitagliptin (1), sitagliptin] | showed antihyperglycemic effects | improved cardiac and renal dysfunction |
